Experimental data taken from publication PMC8508960, “Ruthenium Half-Sandwich Type Complexes with Bidentate Monosaccharide Ligands Show Antineoplastic Activity in Ovarian Cancer Cell Models through Reactive Oxygen Species Production” (International Journal of Molecular Sciences, 2021).

Assay: Aqueous stability over time by NMR
Assay type: physicochemical
Conditions: aqueous medium, 2 day old equilibrated sample, KCl added
Source text: The aqueous stability of the complexes was also studied over time. The small shifts of signals attributable to the structural change of the complex can be observed; however, by adding KCl to the 2 day old equilibrated sample, the original signals could be recovered.

Cc1ccc(C(C)C)cc1.F[P-](F)(F)(F)(F)F.OCC1OC(n2cc(-c3ccccn3)nn2)C(O)C(O)C1O.[Cl][Ru+] (mixture of isomers) [Ru-3a]
aqueous stability over time (NMR): only the exchange of the coordinating chloride ion by a water molecule occurred in a reversible manner
